Blank lines part the entries; values can stand above or below the molecule they belong to.
Assay: solvent given as SMILES

SMILES: CN(C)c1ccc(C=C/C=C/C=C/c2ccc(C#N)cc2)cc1
absorption maximum (in C1CCOC1): 420 nm | absorption maximum (in CC#N): 418 nm | absorption maximum (in CCCC#N): 422 nm | absorption maximum (in CCCCCC): 412 nm | absorption maximum (in CCCCOCCCC): 416 nm | absorption maximum (in CCO): 418 nm | absorption maximum (in CCOCC): 416 nm

absorption maximum (in CCO): 382 nm
SMILES: CN(C)c1cc2sc3cc(N(C)C)c(F)cc3c(=O)c2cc1F

SMILES: CCCCCCCCCCCCOc1ccc(C#Cc2ccc(C#Cc3ccc(OCCCCCCCCCCCC)c(OCCCCCCCCCCCC)c3)c3nc4c5ccccc5c5ccccc5c4nc23)cc1OCCCCCCCCCCCC
absorption maximum (in C1CCOC1): 461 nm | absorption maximum (in Cc1ccccc1): 461 nm | absorption maximum (in ClCCl): 461 nm

SMILES: COc1cnc(-c2cc[n+](C3=C(F)C(F)(F)C(F)(F)[C-]3F)cc2)s1
absorption maximum (in CC#N): 407 nm | absorption maximum (in CC(C)=O): 408 nm | absorption maximum (in CCO): 409 nm | absorption maximum (in CN(C)C=O): 410 nm | absorption maximum (in CO): 407 nm | absorption maximum (in CS(C)=O): 410 nm | absorption maximum (in ClC(Cl)Cl): 433 nm | absorption maximum (in ClCCl): 430 nm

absorption maximum (in C1CCOC1): 301.5 nm | absorption maximum (in CC#N): 281.6 nm | absorption maximum (in CCCCCC): 286.9 nm | absorption maximum (in CCOC(C)=O): 286.1 nm | absorption maximum (in CN(C)C=O): 287.1 nm | absorption maximum (in CO): 282.1 nm | absorption maximum (in CS(C)=O): 283.5 nm | absorption maximum (in ClC(Cl)Cl): 288.3 nm
SMILES: Cc1ccc(NC(=O)c2sc(Br)nc2C)cc1

absorption maximum (in CO): 380 nm | absorption maximum (in ClCCl): 387 nm
SMILES: CCCCCCN(CCCCCC)c1ccc(C#Cc2ccc(N(CCCCCC)CCCCCC)cc2)cc1

absorption maximum (in ClC(Cl)Cl): 545 nm
SMILES: COc1ccc(N(c2ccc(OC)cc2)c2ccc(-c3ccc(-c4ccc(-c5ccc(-c6ccc(N(c7ccc(OC)cc7)c7ccc(OC)cc7)cc6)s5)c5nsnc45)s3)cc2)cc1

absorption maximum (in CO): 629 nm | absorption maximum (in CS(C)=O): 641 nm | absorption maximum (in O): 633 nm
SMILES: CCCN1/C(=C/C=C(/C=C/C2=[N+](CCC)c3ccccc3C2(C)C)c2ccc3ccccc3n2)C(C)(C)c2ccccc21

absorption maximum (in ClCCl): 326 nm
SMILES: Cc1nc(-c2cc(F)ccc2O)n2c1CCCC2

absorption maximum (in ClCCl): 481 nm
SMILES: COc1ccc(-c2c3ccccc3c(C#Cc3ccccc3)c3cc4cc(C)sc4cc23)cc1

SMILES: CN(C)c1[se]c(-c2ccccc2)nc1-c1ccccc1
absorption maximum (in ClC(Cl)Cl): 326 nm

SMILES: c1ccc(-c2nn(-c3ccccc3)c3nc4ccc(N(c5ccccc5)c5ccccc5)cc4cc23)cc1
absorption maximum (in C1CCCCC1): 452.08 nm | absorption maximum (in C1CCOC1): 450.05 nm | absorption maximum (in CC#N): 447.03 nm | absorption maximum (in CC(C)=O): 448.03 nm | absorption maximum (in CCCCCl): 451.06 nm | absorption maximum (in CCCCOCCCC): 451.06 nm | absorption maximum (in CN(C)C=O): 450.05 nm

absorption maximum (in C1CCOC1): 792 nm | absorption maximum (in ClCCl): 791 nm
SMILES: CCC(CC)COC1=CC2=C3c4cc(OCC(CC)CC)c(-c5cccs5)n4[B-](F)(F)[n+]4c3n(c3cc(C(C)(C)C)ccc34)[B-](F)(F)[N+]2=C1c1cccs1

absorption maximum (in ClCCl): 548 nm
SMILES: CCCCCCOc1cc(/C=C2\C(=O)c3ccccc3C2=C(C#N)C#N)c(OCCCCCC)cc1/C=C1\C(=O)c2ccccc2C1=C(C#N)C#N

absorption maximum (in ClC(Cl)Cl): 630 nm
SMILES: Ic1ccc(C2=C3C=CC4=[N+]3[B-]3(Oc5ccccc54)Oc4ccccc4-c4ccc2n43)cc1 (stereo unspecified)

SMILES: CN(C)c1ccc(-c2ccc(-c3cc(N4CCCCC4)c(C#N)c4c3-c3ccccc3CC4)s2)cc1
absorption maximum (in C1CCCCC1): 368 nm | absorption maximum (in C1CCOC1): 350 nm | absorption maximum (in CN(C)C=O): 384 nm | absorption maximum (in CS(C)=O): 379 nm | absorption maximum (in Cc1ccccc1): 377 nm | absorption maximum (in ClC(Cl)Cl): 377 nm

absorption maximum (in C1CCCCC1): 380.4 nm
SMILES: COC(=O)c1c(C(=O)OC)c2ccc(C)nn2c1C

absorption maximum (in CC1CCCCC1): 327 nm | absorption maximum (in CC#N): 312 nm | absorption maximum (in CO): 313 nm
SMILES: COC(=O)C(NC(=O)OC(C)(C)C)c1ccc2oc(-c3cc(OC)c(OC)c(OC)c3)nc2c1 (stereo unspecified)

SMILES: N#Cc1ccc(-n2cccc2)cc1
absorption maximum (in C1CCOC1): 287 nm | absorption maximum (in CC#N): 287 nm | absorption maximum (in CCCCCC): 287 nm | absorption maximum (in CCOCC): 287 nm | absorption maximum (in ClCCl): 287 nm

absorption maximum (in CS(C)=O): 365 nm
SMILES: CCOC(=O)C1=C(N)n2c(=O)c3ccccc3c(=O)n2C1c1ccc(C)cc1 (stereo unspecified)

SMILES: COc1cc(/C=C/c2nc3ccccc3s2)c(OC)cc1/C=C/c1ccncc1
absorption maximum (in C1CCOC1): 415 nm | absorption maximum (in CC#N): 410 nm | absorption maximum (in CN(C)C=O): 416 nm | absorption maximum (in Cc1ccccc1): 416 nm

absorption maximum (in CCO): 354 nm
SMILES: O=C(c1cc(F)c(N2CCCCC2)cc1F)c1cc(F)c(N2CCCCC2)cc1F

absorption maximum (in O): 304 nm
SMILES: O=S(=O)([O-])c1cccc2c(O)cccc12

absorption maximum (in ClCCl): 433 nm
SMILES: CCCCN(CCCC)c1ccc(C#Cc2cc(C#Cc3ccc(N(CCCC)CCCC)cc3)c(C#Cc3cc(C(F)(F)F)cc(C(F)(F)F)c3)cc2C#Cc2cc(C(F)(F)F)cc(C(F)(F)F)c2)cc1

absorption maximum (in C1CCCCC1): 365 nm | absorption maximum (in CC#N): 379 nm | absorption maximum (in CCO): 387 nm
SMILES: COc1ccc2c(c1)-c1ccccc1C2=O

absorption maximum (in O): 409 nm
SMILES: O=C(O)CCCCCn1c2ccccc2c(=O)c2cc(S(=O)(=O)O)ccc21

SMILES: Cn1c(=O)c(/N=N/c2cc(S(=O)(=O)O)ccc2C(=O)O)c(O)c2ccccc21
absorption maximum (in C1CCOC1): 408 nm | absorption maximum (in CC(C)=O): 407 nm | absorption maximum (in CCOC(C)=O): 407 nm | absorption maximum (in CO): 406 nm | absorption maximum (in CS(C)=O): 417 nm | absorption maximum (in Cc1ccccc1): 421 nm | absorption maximum (in ClCCl): 420 nm | absorption maximum (in O): 421 nm

SMILES: CCN(CC)c1ccc2cc(/C(Cl)=C/C=C/C(=C(C#N)C#N)c3ccc4c(c3)c3ccccc3n4CC)c(=O)oc2c1
absorption maximum (in CC(C)=O): 518 nm | absorption maximum (in CCOC(C)=O): 508 nm | absorption maximum (in CN(C)C=O): 532 nm | absorption maximum (in CS(C)=O): 538 nm | absorption maximum (in Cc1ccccc1): 508 nm | absorption maximum (in ClCCl): 526 nm

absorption maximum (in ClCCl): 387 nm
SMILES: CCCCC(CC)Cn1c2cc(C#N)ccc2c2ccc(C#N)cc21 (stereo unspecified)

SMILES: CC1(C)c2ccccc2N(c2ccc3c(c2)C2(c4cc(N5c6ccccc6C(C)(C)c6ccccc65)ccc4-3)c3ccccc3S(=O)(=O)c3ccccc32)c2ccccc21
absorption maximum (in Cc1ccccc1): 364 nm

absorption maximum (in CC#N): 335 nm | absorption maximum (in CCO): 336 nm | absorption maximum (in ClCCl): 340 nm
SMILES: C[P+]1(c2ccccc2)c2ccccc2-c2sc3ccccc3c21 (stereo unspecified)

absorption maximum (in CC#N): 388 nm
SMILES: Cc1ccc(C)c2nc3c(=O)[nH]c(=O)[nH]c3nc12

absorption maximum (in CC1CCCO1): 476 nm
SMILES: O=c1cc2cc(O)c3cc(O)cc4ccc(o1)c2c43

SMILES: CN(C)c1ccc(/C=C/C(=O)O)cc1
absorption maximum (in C1CCCCC1): 358 nm | absorption maximum (in C1CCOC1): 358 nm | absorption maximum (in C1COCCO1): 356 nm | absorption maximum (in CC#N): 364 nm | absorption maximum (in CCCCO): 356 nm | absorption maximum (in CCCO): 355 nm | absorption maximum (in CCOC(C)=O): 358 nm | absorption maximum (in CO): 357 nm | absorption maximum (in Cc1ccccc1): 362 nm | absorption maximum (in O): 323 nm | absorption maximum (in c1ccccc1): 365 nm

absorption maximum (in CC#N): 396 nm | absorption maximum (in CCCCCC): 398 nm | absorption maximum (in CO): 396 nm | absorption maximum (in c1ccccc1): 396 nm
SMILES: O=c1oc2c(ccc3ccccc32)nc1-c1ccccc1

absorption maximum (in CO): 487 nm | absorption maximum (in OCC(O)CO): 509 nm | absorption maximum (in OCCO): 498 nm | absorption maximum (in Oc1ccccc1): 548 nm
SMILES: CN(CCO)c1ccc(/N=N/c2ccc([N+](=O)[O-])cc2)cc1

absorption maximum (in CC(C)(C)O): 349 nm | absorption maximum (in CC(C)CO): 349 nm | absorption maximum (in CC(C)O): 349 nm | absorption maximum (in CCCCO): 348 nm | absorption maximum (in CCCO): 348 nm | absorption maximum (in CCO): 348 nm | absorption maximum (in CN(C)C=O): 349 nm | absorption maximum (in CNC=O): 349 nm | absorption maximum (in CO): 348 nm | absorption maximum (in NC=O): 352 nm | absorption maximum (in O): 350 nm
SMILES: COCCOCCOCCOc1ccc(OCCOCCOCCOC)c(C=O)c1

absorption maximum (in C1CCCCC1): 375 nm | absorption maximum (in CC#N): 369 nm
SMILES: FC(F)(F)c1ccc(/C=C/c2nc3c(ccc4ccccc43)s2)cc1

absorption maximum (in CCCCCC): 500 nm | absorption maximum (in CO): 494 nm | absorption maximum (in ClCCl): 499 nm
SMILES: CC1=C2C=CC=[N+]2[B-](F)(F)n2cccc21

absorption maximum (in ClCCl): 306.5 nm
SMILES: CCCCCCCCCCCCCCn1c(-c2cc(-c3nc4ccc(C)cc4n3CCCCCCCCCCCCCC)cc(-c3nc4ccc(C)cc4n3CCCCCCCCCCCCCC)c2)nc2ccc(C)cc21

SMILES: c1cc2ccc3ccc4cc3c2cc1c1ccc2ccc3ccc(cc3c2c1)c1ccc2ccc3ccc4cc3c2c1
absorption maximum (in Cc1ccccc1): 375 nm

absorption maximum (in CC#N): 562 nm | absorption maximum (in CCCCCC): 572 nm | absorption maximum (in CCOC(C)=O): 565 nm | absorption maximum (in CO): 562 nm | absorption maximum (in ClCCl): 568 nm
SMILES: CCc1c(C)c2n(c1C)[B-](F)(F)[N+]1=C(NCc3ccc(OC)cc3)C(SC#N)=CC1=C2C

absorption maximum (in ClC(Cl)Cl): 504 nm
SMILES: CC1=CC(C)=[N+]2C1=C(c1ccc(I)cc1)c1c(C)cc(C)n1[B-]2(OC(C)C)OC(C)C

absorption maximum (in CS(C)=O): 553 nm
SMILES: C[N+]1=C(/C=C/C=C2/N(CCCS(=O)(=O)[O-])c3ccccc3C2(C)C)C(C)(C)c2ccccc21

absorption maximum (in ClCCl): 378 nm
SMILES: C1=C(c2ccccc2)S[C@]23C1=C(c1ccccc1)[C@H](c1ccccc12)c1ccccc13

absorption maximum (in ClC(Cl)Cl): 394 nm
SMILES: C(#Cc1ccccc1)C(C#Cc1ccccc1)=Cc1ccc(-c2ccc(C=C(C#Cc3ccccc3)C#Cc3ccccc3)cc2)cc1

SMILES: CCn1c2ccsc2c2c3nsnc3c3c4sccc4n(CC)c3c21
absorption maximum (in C1CCOC1): 436 nm | absorption maximum (in CCOC(C)=O): 433 nm | absorption maximum (in CN(C)C=O): 441 nm | absorption maximum (in Cc1ccccc1): 432 nm | absorption maximum (in ClCCl): 436 nm

absorption maximum (in ClCCl): 427 nm
SMILES: CCCCCCCCCCCCN1C(=O)c2c(c3ccc4cc(-c5ccc(C#N)cc5)c(OC)cc4c3c3c2ccc2cc(-c4ccc(C#N)cc4)c(OC)cc23)C1=O

absorption maximum (in ClC(Cl)Cl): 691 nm
SMILES: CN1C(=CC2=C([O-])C(=Cc3sc4ccccc4[n+]3C)C2=C(C#N)C#N)C(C)(C)c2ccccc21

absorption maximum (in CC#N): 384 nm
SMILES: CCOC(=O)c1c(C=Cc2ccccc2)oc(NC2CCCCC2)c1C(=O)OCC

absorption maximum (in CC#N): 269 nm | absorption maximum (in ClCCl): 268 nm
SMILES: Nc1nc2ccc(Br)cc2s1
